Where a SMILES comes first, the peptide text is derived from it. [ ]: non-standard residue; d: D form. The star is where a group is joined. Gly(1-COOH-cBu) = N[C@H](C(=O)O)C1(C(=O)O)CCC1; Hydrocinnamoyl = O=C(CCc1ccccc1)*; Pentanoyl(4-Me) = CC(C)CCC(=O)*; O(2S-octyl) = CCCCCC[C@H](C)O*; NHPhenethyl = c1ccc(CCN*)cc1; Tle = CC(C)(C)[C@H](N)C(=O)O; NMeV = CN[C@H](C(=O)O)C(C)C; Pyrrolidide = C1CCN(*)C1; NHIsopentyl = CC(C)CCN*; Boc = CC(C)(C)OC(=O)*; X6 = CC(C)C[C@H](C)N*; X2 = CCCCCCCCCCCCO*; X4 = CCCCCCCCN(C)*
The molecules below were run against T1, HSV-1 ribonucleotide reductase (partially purified) (Human herpesvirus 1, UniProt P08543) (assay: biochemical). Conditions: not given.
T1 construct: obtained from quiescent BHK-21/C13 cells infected with strain F HSV-1 virus; endogenous in cells; host or cells: quiescent BHK-21/C13 cells infected with HSV-1 strain F; enzyme partially purified (Cohen et al., J. Gen. Virol. 66, 733 (1985))
T1 sequence (P08543 whole entry): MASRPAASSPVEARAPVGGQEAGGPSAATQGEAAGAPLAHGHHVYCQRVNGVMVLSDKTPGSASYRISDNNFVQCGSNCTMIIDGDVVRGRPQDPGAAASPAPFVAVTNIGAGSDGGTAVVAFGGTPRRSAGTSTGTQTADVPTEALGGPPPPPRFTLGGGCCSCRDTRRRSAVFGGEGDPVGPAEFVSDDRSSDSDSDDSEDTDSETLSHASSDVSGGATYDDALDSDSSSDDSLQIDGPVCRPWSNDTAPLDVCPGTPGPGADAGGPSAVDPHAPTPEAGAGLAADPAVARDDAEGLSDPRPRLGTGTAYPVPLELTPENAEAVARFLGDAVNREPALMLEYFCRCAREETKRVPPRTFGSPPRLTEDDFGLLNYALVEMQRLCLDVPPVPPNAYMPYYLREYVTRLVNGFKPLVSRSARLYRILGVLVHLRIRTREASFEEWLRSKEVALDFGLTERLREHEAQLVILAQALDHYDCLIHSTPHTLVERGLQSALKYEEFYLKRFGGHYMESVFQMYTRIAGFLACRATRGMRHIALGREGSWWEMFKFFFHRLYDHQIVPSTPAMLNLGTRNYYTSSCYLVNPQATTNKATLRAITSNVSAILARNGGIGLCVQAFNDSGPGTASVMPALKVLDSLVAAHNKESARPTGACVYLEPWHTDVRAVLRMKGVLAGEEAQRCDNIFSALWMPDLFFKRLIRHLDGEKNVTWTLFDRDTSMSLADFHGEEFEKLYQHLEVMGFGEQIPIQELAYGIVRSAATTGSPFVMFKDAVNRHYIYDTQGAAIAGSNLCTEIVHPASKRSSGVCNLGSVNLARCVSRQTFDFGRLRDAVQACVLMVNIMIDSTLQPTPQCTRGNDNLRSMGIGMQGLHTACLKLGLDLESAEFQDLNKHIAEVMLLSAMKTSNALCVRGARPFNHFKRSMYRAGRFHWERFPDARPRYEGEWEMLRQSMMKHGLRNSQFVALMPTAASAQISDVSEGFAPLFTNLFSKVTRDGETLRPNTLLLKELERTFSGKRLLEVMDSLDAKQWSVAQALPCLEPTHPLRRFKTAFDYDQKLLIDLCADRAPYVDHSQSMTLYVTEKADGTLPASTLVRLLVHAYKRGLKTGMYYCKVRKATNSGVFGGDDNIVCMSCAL
Format: biochemical
From the text: b) Assay and Results for Exemplified Peptides
With `CCCCCCCCCCCCOC(=O)C[C@H](NC(=O)[C@@H](NC(=O)[C@H](C(C)C)N(C)C(=O)CCc1ccccc1)[C@@H](C)CC)C(=O)N[C@@H](CC(=O)O)C(=O)N[C@@H](CC(C)C)C(=O)O` [Entry 29, PhCH2 CH2 CO--N--Me--Val--Ile--Asp(dodecyloxy)-Asp--Leu--OH] (Hydrocinnamoyl-[NMeV]ID(X2)DL-OH) the IC50 was 4200 nM.
`CCCCCC[C@H](C)OC(=O)C[C@H](NC(=O)[C@@H](NC(=O)[C@H](C(C)C)N(C)C(=O)CCC(C)C)[C@@H](C)CC)C(=O)N[C@@H](CC(=O)O)C(=O)N[C@@H](CC(C)C)C(=O)O` [Entry 30, 4-Methylpentanoyl-N--Me--Val--Ile--Asp 1(S)-methylheptyloxy!-Asp--Leu--OH] ({Pentanoyl(4-Me)}-[NMeV]ID(O(2S-octyl))DL-OH) showed an IC50 of 1700 nM.
`CCCCCC[C@H](C)OC(=O)C[C@H](NC(=O)[C@@H](NC(=O)[C@H](C(C)C)N(C)C(=O)CCc1ccccc1)[C@@H](C)CC)C(=O)N[C@@H](CC(=O)O)C(=O)N[C@@H](CC(C)C)C(N)=O` [Entry 31, PhCH2 CH2 CO--N--Me--Val--Ile--Asp 1(S)-methylheptyloxy!-Asp--Leu--NH2] (Hydrocinnamoyl-[NMeV]ID(O(2S-octyl))DL-NH2) showed an IC50 of 1900 nM.
In the case of `CCCCCCCCN(C)C(=O)C[C@H](NC(=O)[C@@H](NC(=O)[C@H](C(C)C)N(C)C(=O)CCc1ccccc1)[C@@H](C)CC)C(=O)N[C@@H](CC(=O)O)C(=O)N[C@@H](CC(C)C)C(=O)O` [Entry 32, PhCH2 CH2 CO--N--Me--Val--Ile--Asp NMe(octyl)!-Asp--Leu--OH] (Hydrocinnamoyl-[NMeV]ID(X4)DL-OH), the IC50 is reported as 260 nM.
`CC(C)C[C@H](NC(=O)[C@@H](NC(=O)[C@H](CC(=O)N1CCCC1)NC(=O)[C@@H](NC(=O)[C@H](C(C)C)N(C)C(=O)CCc1ccccc1)C(C)(C)C)C1(C(=O)O)CCC1)C(=O)O` [Entry 33, PhCH2 CH2 CO--N--Me--Val--Tbg--Asp(pyrrolidino)-Asp(cyBu)-Leu--OH] (Hydrocinnamoyl-[NMeV][Tle]D(Pyrrolidide)[Gly(1-COOH-cBu)]L-OH) was tested, and the IC50 was 60 nM.
With `CCCCCC[C@H](C)OC(=O)C[C@H](NC(=O)[C@@H](NC(=O)[C@H](C(C)C)N(C)C(=O)CCc1ccccc1)[C@@H](C)CC)C(=O)N[C@@H](CC(=O)O)C(=O)N[C@@H](CC(C)C)C(=O)OC` [Entry 37, PhCH2 CH2 CO--N--Me--Val--Ile--Asp 1(S)-methylheptyloxy!-Asp--Leu--OCH3] (Hydrocinnamoyl-[NMeV]ID(O(2S-octyl))DL-OMe) the IC50 was 2000 nM.
For `CC[C@H](C)[C@H](NC(=O)[C@H](C(C)C)N(C)C(=O)CCc1ccccc1)C(=O)N[C@@H](CC(=O)N1CCCC1)C(=O)N[C@@H](CC(=O)O)C(=O)NCCC(C)C` [Entry 38, PhCH2 CH2 CO--N--Me--Val--Ile--Asp(pyrrolidino)-Asp--NHCH2 CH2 CH(CH3)2] (Hydrocinnamoyl-[NMeV]ID(Pyrrolidide)D-NHIsopentyl), the IC50 was 1300 nM.
`CC[C@H](C)[C@H](NC(=O)[C@H](C(C)C)N(C)C(=O)CCc1ccccc1)C(=O)N[C@@H](CC(=O)N1CCCC1)C(=O)N[C@@H](CC(=O)O)C(=S)N[C@@H](CC(C)C)C(=O)O` [Entry 40, PhCH2 CH2 CO--N--Me--Val--Ile--Asp(pyrrolidino)-.PSI. CSNH!Asp--Leu--OH] was tested, and the IC50 was 160 nM.
For `CC[C@H](C)[C@H](NC(=O)[C@H](C(C)C)N(C)C(=O)CCc1ccccc1)C(=O)N[C@@H](CC(=O)N1CCCC1)C(=O)N[C@@H](CC(=O)O)C(=O)N[C@@H](C)CC(C)C` [Entry 41, PhCH2 CH2 CO--N--Me--Val--Ile--Asp(pyrrolidino)-Asp--NHCH(CH3)CH2 CH(CH3)2] (Hydrocinnamoyl-[NMeV]ID(Pyrrolidide)D-X6), the IC50 was 2600 nM.

Same assay, conditions: Table 4; concentration producing 50% of the maximal inhibition of enzyme activity; mean of four assays; read-out: IC50
`CC[C@H](C)[C@H](NC(=O)[C@H](C(C)C)N(C)C(=O)OC(C)(C)C)C(=O)N[C@@H](CC(=O)NCCc1ccccc1)C(=O)N[C@@H](CC(=O)O)C(=O)N[C@@H](CC(C)C)C(=O)O` [Entry 24, Boc--N--Me--Val--Ile--Asp(NHCH2 CH2 Ph)--Asp--Leu--OH] (Boc-[NMeV]ID(NHPhenethyl)DL-OH) showed an IC50 of 1600 nM.
